In PubChem BioAssay AID2060489 (Molecular Pharmacology Branch, DTP, NCI, 2025):
Where “and” joins values, the source holds several entries; their conditions need not be identical. Identical values can stand only once.

System: 922993-354-T-J3-PDC complex spheroids, viability
Assay: Anticancer human tumor 922993-354-T-J3-PDC patient-derived endometrial carcinoma cell line growth inhibition [GQUAD]
Settings: for viability, T/C: stronger effect = lower value
Excerpt: DNA G-quadruplex Stabilizer Agents in Combinations in Complex Spheroids
A high-throughput screen of multi-cell type tumor spheroids was designed to identify active combinations of DNA G-quadruplex stabilizer agents and targeted small molecules. Complex spheroids include a stromal component modeled by human endothelial cells (HUVEC) and fibroblasts modeled by human mesenchymal stem cells (MSCs). The concentration ranges selected for each drug and investigational agent were based upon clinically achievable concentrations if the clinical Cmax of the agent was known.
Compounds. The drugs and investigational agents: pidnarulex (CX-5461; NSC782164), APTO-253 (NSC789042), BRACO-19 (NSC847499), peposertib (NSC802822), ceralasertib (NSC780249), elimusertib (NSC800525), camonsertib (NSC841442), AZD-1390 (NSC803789), olaparib (NSC753686), talazoparib (NSC767125), ART-558 (NSC835418), sotorasib (NSC818433), MRTX-1133 (NSC836407), SN-38 (NSC673596), topotecan (NSC609699), etoposide (NSC141540), doxorubicin (NSC123127), gemcitabine (NSC613327), 5-fluorouracil (NSC19893), paclitaxel (NSC125973), vemurafenib (NSC761431), panobinostat (NSC761190), R-306465 (JNJ-16241199; NSC773264), adavosertib (NSC754352), TP-3654 (NSC805149), carboplatin (NSC241240), KSQ-4279 (NSC840948), and staurosporine (NSC755774) were obtained from the National Cancer Institute (NCI) Developmental Therapeutics Program Chemical Repository (34). The FDA-approved anticancer drug set is available from the NCI Developmental Therapeutics Program. […] The stock solutions were prepared in dimethyl sulfoxide (DMSO, Sigma-Aldrich, St. Louis, MO, cat. D2650) at 800-fold the tested concentration and stored at -70 degrees C prior to their use. All drugs and investigational agents were tested over a range starting from a high concentration at or near the clinical Cmax and decreasing in half-log increments. If the clinical Cmax for an agent had not been determined, the highest concentration tested was 10 microM.
2.3 Cell Culture. All cells were maintained in an incubator at 37 degrees C and 5% CO2 with 95% humidity. The PDC lines were cultured according to standard operating procedures established by the NCI PDMR. All PDCs were thawed and cultured in Matrigel-coated flasks prepared with a working solution of 1X Ham's F-12 nutrient mix, without supplementation (Invitrogen, cat. 11765054), 100 U/mL penicillin-streptomycin (Invitrogen, cat. 15140122), and 2.5% Matrigel (Corning Inc., cat. 354248) for the first three passages. The 857933-349-R-J2-PDC line was cultured in 6C/Colon 1B media, which includes advanced DMEM/F-12 (Thermo Fisher Scientific, cat. 12634028), 10 mM HEPES (Thermo Fisher Scientific, cat. 15630080), 1X GlutaMAX supplement (Thermo Fisher Scientific, cat. 35050061), 0.1 mg/mL primocin (InvivoGen, cat. ant-pm-2), 10% defined fetal bovine serum, heat inactivated (HyClone Laboratories Inc., cat. SH30070.03HI), 50% L-WRN conditioned media (ATCC, cat. CRL-3276), 1.25 mM N-Acetyl-L-cysteine (Sigma-Aldrich, cat. A9165), 10 mM nicotinamide (Sigma-Aldrich, cat. N0636), 1X B-27 supplement (Thermo Fisher Scientific, cat. 17504044), 1X N-2 supplement (Thermo Fisher Scientific, cat. 17502048), 10 microM Y-27632 dihydrochloride (Tocris Bioscience, cat. 1254), and 50 ng/mL human EGF recombinant protein (Thermo Fisher Scientific, cat. PHG0311). The 485176-168-R4-J1-PDC line was cultured in Panc media, which includes all 6C/Colon 1B media components plus 100 ng/mL human FGF-10 (Thermo Fisher Scientific, cat. 100-26), 500 nM SB-431542 (Selleckchem, cat. S1067), and gastrin (Tocris, cat. 3006).
[…]

[1] = curve of first compound, second compound 0.0316 µM
[2] = curve of first compound, second compound 0.1 µM
[3] = curve of first compound, second compound 0.316 µM
[4] = curve of first compound, second compound 1 µM
[5] = curve of first compound, second compound 3.16 µM
[6] = curve of first compound, second compound 10 µM
[7] = second compound 0.0316 µM, first compound 0.0316 µM
[8] = second compound 0.0316 µM, first compound 0.1 µM
[9] = second compound 0.0316 µM, first compound 0.316 µM
[10] = second compound 0.0316 µM, first compound 1 µM
[11] = second compound 0.0316 µM, first compound 3.16 µM
[12] = second compound 0.0316 µM, first compound 10 µM
[13] = second compound 0.1 µM, first compound 0.0316 µM
[14] = second compound 0.1 µM, first compound 0.1 µM
[15] = second compound 0.1 µM, first compound 0.316 µM
[16] = second compound 0.1 µM, first compound 1 µM
[17] = second compound 0.1 µM, first compound 3.16 µM
[18] = second compound 0.1 µM, first compound 10 µM
[19] = second compound 0.316 µM, first compound 0.0316 µM
[20] = second compound 0.316 µM, first compound 0.1 µM
[21] = second compound 0.316 µM, first compound 0.316 µM
[22] = second compound 0.316 µM, first compound 1 µM
[23] = second compound 0.316 µM, first compound 3.16 µM
[24] = second compound 0.316 µM, first compound 10 µM
[25] = second compound 1 µM, first compound 0.0316 µM
[26] = second compound 1 µM, first compound 0.1 µM
[27] = second compound 1 µM, first compound 0.316 µM
[28] = second compound 1 µM, first compound 1 µM
[29] = second compound 1 µM, first compound 3.16 µM
[30] = second compound 1 µM, first compound 10 µM
[31] = second compound 3.16 µM, first compound 0.0316 µM
[32] = second compound 3.16 µM, first compound 0.1 µM
[33] = second compound 3.16 µM, first compound 0.316 µM
[34] = second compound 3.16 µM, first compound 1 µM
[35] = second compound 3.16 µM, first compound 3.16 µM
[36] = second compound 3.16 µM, first compound 10 µM
[37] = second compound 10 µM, first compound 0.0316 µM
[38] = second compound 10 µM, first compound 0.1 µM
[39] = second compound 10 µM, first compound 0.316 µM
[40] = second compound 10 µM, first compound 1 µM
[41] = second compound 10 µM, first compound 3.16 µM
[42] = second compound 10 µM, first compound 10 µM
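Further: spheroids exposed to compounds for seven days.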
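Wherever viability, T/C is given: 100% = DMSO vehicle control viability.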

COc1cccc2c1C(=O)c1c(O)c3c(c(O)c1C2=O)CC(O)(C(=O)CO)CC3OC1CC(N)C(O)C(C)O1 (stereo unspecified) + Cc1[nH]c2ccc(F)cc2c1-c1nc2c3cccnc3c3ncccc3c2[nH]1
IC50 [1]: 9.8 µM
IC50 [2]: > 10 µM
IC50 [3]: > 10 µM
IC50 [4]: > 10 µM
IC50 [5]: > 10 µM
IC50 [6]: 9.33 µM
viability, T/C [7]: 120%
viability, T/C [8]: 114%
viability, T/C [9]: 99.5%
viability, T/C [10]: 83.7%
viability, T/C [11]: 76.3%
viability, T/C [12]: 46.1%
viability, T/C [13]: 118%
viability, T/C [14]: 96%
viability, T/C [15]: 86.7%
viability, T/C [16]: 66.3%
viability, T/C [17]: 105%
viability, T/C [18]: 56.1%
viability, T/C [19]: 96.5%
viability, T/C [20]: 105%
viability, T/C [21]: 92.6%
viability, T/C [22]: 94.1%
viability, T/C [23]: 73.2%
viability, T/C [24]: 56.1%
viability, T/C [25]: 122%
viability, T/C [26]: 91.4%
viability, T/C [27]: 72.3%
viability, T/C [28]: 80.1%
viability, T/C [29]: 81.3%
viability, T/C [30]: 53.8%
viability, T/C [31]: 120%
viability, T/C [32]: 73.8%
viability, T/C [33]: 71.4%
viability, T/C [34]: 88.7%
viability, T/C [35]: 74.6%
viability, T/C [36]: 46.9%
viability, T/C [37]: 97.2%
viability, T/C [38]: 81.8%
viability, T/C [39]: 89%
viability, T/C [40]: 98.4%
viability, T/C [41]: 103%
viability, T/C [42]: 47.1%

CCc1c2c(nc3ccc(O)cc13)-c1cc3c(c(=O)n1C2)COC(=O)[C@]3(O)CC
viability, T/C (compound 0.000999 µM): 87% and 104% and 96.5%
viability, T/C (compound 0.00316 µM): 71.4% and 69.9% and 67.3%
viability, T/C (compound 0.00999 µM): 48% and 31.8% and 48.8%
viability, T/C (compound 0.0316 µM): 18.4% and 10.6% and 23.2%
viability, T/C (compound 0.0999 µM): 24.3% and 11.3% and 29.4%
viability, T/C (compound 0.316 µM): 24.9% and 13.8% and 31.8%
IC50 (curve of compound): 0.00801 µM and 0.00566 µM and 0.00743 µM

CC1COCCN1c1cc(-c2ccnn2C)c2ccnc(-c3ccn[nH]3)c2n1 (stereo unspecified) + Cc1cnc(CNC(=O)c2c(=O)c3ccc(N4CCCN(C)CC4)nc3n3c2sc2ccccc23)cn1
IC50 [1]: < 0.0316 µM
IC50 [2]: < 0.0316 µM
IC50 [3]: < 0.0316 µM
IC50 [4]: < 0.0316 µM
IC50 [5]: < 0.0316 µM
IC50 [6]: < 0.0316 µM
viability, T/C [7]: 49.1%
viability, T/C [8]: 50.3%
viability, T/C [9]: 42.2%
viability, T/C [10]: 24.7%
viability, T/C [11]: 24.3%
viability, T/C [12]: 21.9%
viability, T/C [13]: 45.4%
viability, T/C [14]: 42.9%
viability, T/C [15]: 25.3%
viability, T/C [16]: 25.7%
viability, T/C [17]: 28.9%
viability, T/C [18]: 20.7%
viability, T/C [19]: 45.5%
viability, T/C [20]: 44.4%
viability, T/C [21]: 37.2%
viability, T/C [22]: 33.5%
viability, T/C [23]: 22.9%
viability, T/C [24]: 20.9%
viability, T/C [25]: 43.7%
viability, T/C [26]: 51.7%
viability, T/C [27]: 46%
viability, T/C [28]: 43.8%
viability, T/C [29]: 22.9%
viability, T/C [30]: 6.94%
viability, T/C [31]: 50.1%
viability, T/C [32]: 43.8%
viability, T/C [33]: 46.6%
viability, T/C [34]: 36.6%
viability, T/C [35]: 8.14%
viability, T/C [36]: 0.53%
viability, T/C [37]: 51.9%
viability, T/C [38]: 42%
viability, T/C [39]: 46.3%
viability, T/C [40]: 22.2%
viability, T/C [41]: 0.68%
viability, T/C [42]: 0.18%
